Assay results reported in the NIST ThermoML archive (doi:10.1021/je3009073).
± gives the expanded uncertainty stated by the source.

Assays:
[1] = 101.33 kPa, Liquid; for viscosity: Capillary tube (Ostwald / Ubbelohde) method; for mass density: Pycnometric method
[2] = xn = mol fraction of the nth substance listed; conditions: 101 kPa, Liquid, x1 = 1; for viscosity: Capillary tube (Ostwald / Ubbelohde) method; for mass density: Pycnometric method

viscosity ([1]; 303.15 K) [mPa·s] | mass density ([1]; 303.15 K) [kg/m3] | viscosity ([1]; 308.15 K) [mPa·s] | mass density ([1]; 308.15 K) [kg/m3] | viscosity ([1]; 313.15 K) [mPa·s] | mass density ([1]; 313.15 K) [kg/m3] | viscosity ([1]; 318.15 K) [mPa·s] | mass density ([1]; 318.15 K) [kg/m3] | viscosity ([1]; 323.15 K) [mPa·s] | mass density ([1]; 323.15 K) [kg/m3] | viscosity ([1]; 328.15 K) [mPa·s] | mass density ([1]; 328.15 K) [kg/m3] | viscosity ([2]; 303.15 K) [mPa·s] | viscosity ([2]; 308.15 K) [mPa·s] | viscosity ([2]; 313.15 K) [mPa·s] | viscosity ([2]; 318.15 K) [mPa·s] | viscosity ([2]; 323.15 K) [mPa·s] | mass density ([2]; 323.15 K) [kg/m3] | viscosity ([2]; 328.15 K) [mPa·s] | mass density ([2]; 328.15 K) [kg/m3] | SMILES
14.55 ± 0.61 | 1007.9 ± 2 | 11.86 ± 0.5 | 1004.2 ± 2 | 9.65 ± 0.41 | 1000.5 ± 2.1 | 7.91 ± 0.33 | 996.2 ± 2.1 | 6.72 ± 0.28 | 992.7 ± 2.1 | 5.74 ± 0.24 | 988.7 ± 2.1 |  |  |  |  |  |  |  |  | NCCO [2-aminoethan-1-ol]
 |  |  |  |  |  |  |  |  |  |  |  | 0.8 ± 0.03 | 0.72 ± 0.03 | 0.65 ± 0.03 | 0.6 ± 0.1 | 0.55 ± 0.02 | 988 ± 2 | 0.5 ± 0.02 | 985.7 ± 2 | O [water] + CC(O)C(=O)[O-].CN(C)C(N)=[N+](C)C
 |  |  |  |  |  |  |  |  |  |  |  | 0.8 ± 0.03 | 0.72 ± 0.03 | 0.65 ± 0.03 | 0.6 ± 0.02 | 0.55 ± 0.02 | 988 ± 2 | 0.5 ± 0.02 | 985.7 ± 2 | O [water] + CC(O)C(=O)[O-].[NH3+]CCO
